The values that follow come from ChEMBL document CHEMBL1132666, “Significant compensatory role of position Y-2 conferring high affinity to non-phosphorylated inhibitors of Grb2-SH2 domain” (Bioorg Med Chem Lett, 1999).

Structures are written as SMILES. pIC50: −log10 of the molar value.

The target in the test is Growth factor receptor-bound protein 2 (Homo sapiens, UniProt P62993). Kind of test: Inhibitory activity against Growth factor receptor bound protein 2.
Chain of Growth factor receptor-bound protein 2 (P62993 whole entry): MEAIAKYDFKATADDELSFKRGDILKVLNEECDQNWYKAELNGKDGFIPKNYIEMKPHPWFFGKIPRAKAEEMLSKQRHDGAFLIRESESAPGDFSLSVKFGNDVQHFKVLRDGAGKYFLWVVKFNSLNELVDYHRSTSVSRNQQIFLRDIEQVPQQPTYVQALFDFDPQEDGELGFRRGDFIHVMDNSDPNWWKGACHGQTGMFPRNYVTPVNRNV
As usually defined, the pIC50 is −log10 of the IC50, conventionally taken in molar units. High values mean a low IC50, low ones a high IC50. `CSCC[C@H]1NC(=O)CNC(=O)[C@@H](C(C)C)NC(=O)[C@@H](CC(N)=O)NC(=O)[C@@H](CCC(=O)O)NC(=O)[C@@H](Cc2ccc(O)cc2)NC(=O)[C@@H](CC(C)C)NC(=O)[C@@H](CCC(=O)O)NC(=O)CSC[C@H](C(N)=O)NC(=O)[C@@H](Cc2ccc(O)cc2)NC1=O` had a pIC50 of 4.70. In the case of `CSCC[C@H]1NC(=O)CNC(=O)[C@@H](C(C)C)NC(=O)[C@@H](CC(N)=O)NC(=O)[C@@H](CCC(=O)O)NC(=O)[C@@H](Cc2ccc(O)cc2)NC(=O)[C@@H](CC(C)C)NC(=O)[C@@H](C)NC(=O)CSC[C@H](C(N)=O)NC(=O)[C@@H](Cc2ccc(O)cc2)NC1=O` it was 4.00; in that of `CSCC[C@H]1NC(=O)CNC(=O)[C@@H](C(C)C)NC(=O)[C@@H](CC(N)=O)NC(=O)[C@@H](CCC(=O)O)NC(=O)[C@@H](Cc2ccc(O)cc2)NC(=O)[C@@H](CC(C)C)NC(=O)[C@@H](C)NC(=O)CSC[C@H](C(N)=O)NC(=O)[C@@H](Cc2ccc(OP(=O)(O)O)cc2)NC1=O`, 7.64. In the case of `CSCC[C@H]1NC(=O)CNC(=O)[C@@H](C(C)C)NC(=O)[C@@H](CC(N)=O)NC(=O)[C@@H](CCC(=O)O)NC(=O)[C@@H](Cc2ccc(O)cc2)NC(=O)[C@@H](CC(C)C)NC(=O)[C@@H](CCC(=O)O)NC(=O)CSC[C@H](C(N)=O)NC(=O)[C@@H](Cc2ccc(OP(=O)(O)O)cc2)NC1=O` it was 6.89; in that of `CSCC[C@H]1NC(=O)CNC(=O)[C@@H](C(C)C)NC(=O)[C@@H](CC(N)=O)NC(=O)[C@@H](CCC(=O)O)NC(=O)[C@@H](Cc2ccc(O)cc2)NC(=O)[C@@H](CC(C)C)NC(=O)[C@@H](CC(C(=O)O)C(=O)O)NC(=O)CSC[C@H](C(N)=O)NC(=O)[C@@H](Cc2ccc(O)cc2)NC1=O`, 6.19. `CSCC[C@H]1NC(=O)CNC(=O)[C@@H](C(C)C)NC(=O)[C@@H](CC(N)=O)NC(=O)[C@@H](CCC(=O)O)NC(=O)[C@@H](Cc2ccc(O)cc2)NC(=O)[C@@H](CC(C)C)NC(=O)[C@@H](CCCC(=O)O)NC(=O)CSC[C@H](C(N)=O)NC(=O)[C@@H](Cc2ccc(O)cc2)NC1=O` gave a pIC50 of 5.46. In the case of `CSCC[C@H]1NC(=O)CNC(=O)[C@@H](C(C)C)NC(=O)[C@@H](CC(N)=O)NC(=O)[C@@H](CCC(=O)O)NC(=O)[C@@H](Cc2ccc(O)cc2)NC(=O)[C@@H](CC(C)C)NC(=O)[C@@H](Cc2ccc(OP(=O)(O)O)cc2)NC(=O)CSC[C@H](C(N)=O)NC(=O)[C@@H](Cc2ccc(O)cc2)NC1=O` it was 4.56; in that of `CSCC[C@H]1NC(=O)CNC(=O)[C@@H](C(C)C)NC(=O)[C@@H](CC(N)=O)NC(=O)[C@@H](CCC(=O)O)NC(=O)[C@@H](Cc2ccc(O)cc2)NC(=O)[C@@H](CC(C)C)NC(=O)[C@@H](Cc2ccc(OC(C(=O)O)C(=O)O)cc2)NC(=O)CSC[C@H](C(N)=O)NC(=O)[C@@H](Cc2ccc(O)cc2)NC1=O`, 4.19.
